Laboratory results taken from ChEMBL document CHEMBL5050845, “Enhancers of neurolysin activity” (2020).
pKi: −log10 of the molar value. One block for each compound: values may come before it. The source made the active and inactive calls. The calls are words filed in the database; no cut-off is given here. Peptide text beside a SMILES is read from it. * marks the point of attachment. NHPhenethyl = c1ccc(CCN*)cc1; Boc = CC(C)(C)OC(=O)*

How the values were obtained:
[1] = species: Rattus norvegicus; assay: Positive allosteric modulation of recombinant N-terminal poly-His tagged rat neurolysin using Mca-Pro-Leu- Gly-Pro-D-Lys(DNP)-OH as substrate and measured by fluorescence based assay
[2] = species: Rattus norvegicus; assay: Positive allosteric modulation of recombinant N-terminal poly-His tagged rat neurolysin using Mca-Pro-Leu- Gly-Pro-D-Lys(DNP)-OH as substrate assessed as Amax and measured by fluorescence based assay relative to control
[3] = target: Neprilysin (Homo sapiens) (UniProt P08473); assay: Inhibition of recombinant N-terminal 6His-tagged human neprilysin expressed in CHO cells at 300 uM using Mca-Arg-Pro-Pro-Gly-Phe-Ser-Ala-Phe-Lys(Dnp)-OH as substrate and measured by fluorescence based assay relative to control
Chain of Neprilysin (Homo sapiens) (P08473 whole entry): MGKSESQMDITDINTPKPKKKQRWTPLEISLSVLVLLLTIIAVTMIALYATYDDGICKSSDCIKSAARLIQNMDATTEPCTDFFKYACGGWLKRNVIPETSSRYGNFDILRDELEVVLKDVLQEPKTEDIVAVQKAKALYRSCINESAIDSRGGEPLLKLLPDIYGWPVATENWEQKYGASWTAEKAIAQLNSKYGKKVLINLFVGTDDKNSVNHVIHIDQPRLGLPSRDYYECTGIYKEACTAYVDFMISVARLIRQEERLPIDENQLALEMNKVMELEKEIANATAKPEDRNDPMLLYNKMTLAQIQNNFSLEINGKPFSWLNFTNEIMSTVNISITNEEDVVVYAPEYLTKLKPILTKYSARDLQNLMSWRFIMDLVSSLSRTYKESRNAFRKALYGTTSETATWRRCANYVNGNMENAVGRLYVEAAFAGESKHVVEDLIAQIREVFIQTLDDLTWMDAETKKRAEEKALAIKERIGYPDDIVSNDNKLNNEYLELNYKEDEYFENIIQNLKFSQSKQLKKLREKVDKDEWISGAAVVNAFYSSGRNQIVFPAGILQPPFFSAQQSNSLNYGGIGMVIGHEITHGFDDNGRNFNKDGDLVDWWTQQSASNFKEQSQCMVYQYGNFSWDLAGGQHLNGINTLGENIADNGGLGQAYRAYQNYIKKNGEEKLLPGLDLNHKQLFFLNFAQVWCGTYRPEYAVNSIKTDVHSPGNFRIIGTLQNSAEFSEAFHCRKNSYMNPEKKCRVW

[4] = species: Rattus norvegicus; assay: Positive allosteric modulation of catalytic activity of recombinant N-terminal poly-His tagged rat neurolysin at 40 uM assessed as Km measured fluorescence assay; details: filed as positive allosteric modulator
[5] = species: Homo sapiens; assay: Inhibition of recombinant N-terminal Met and His-tagged human Thimet oligopeptidase at 300 uM using Mca-Pro-Leu-Gly-Pro-D-Lys(DNP)-OH as substrate and measured by fluorescence based assay relative to control
[6] = target: Angiotensin-converting enzyme (Homo sapiens) (UniProt P12821); assay: Inhibition of recombinant C-terminal 10His-tagged human ACE at 300 uM using Mca-Arg-Pro-Pro-Gly-Phe-Ser-Ala-Phe-Lys(Dnp)-OH as substrate and measured by fluorescence based assay relative to control
Chain of Angiotensin-converting enzyme (Homo sapiens) (P12821 whole entry): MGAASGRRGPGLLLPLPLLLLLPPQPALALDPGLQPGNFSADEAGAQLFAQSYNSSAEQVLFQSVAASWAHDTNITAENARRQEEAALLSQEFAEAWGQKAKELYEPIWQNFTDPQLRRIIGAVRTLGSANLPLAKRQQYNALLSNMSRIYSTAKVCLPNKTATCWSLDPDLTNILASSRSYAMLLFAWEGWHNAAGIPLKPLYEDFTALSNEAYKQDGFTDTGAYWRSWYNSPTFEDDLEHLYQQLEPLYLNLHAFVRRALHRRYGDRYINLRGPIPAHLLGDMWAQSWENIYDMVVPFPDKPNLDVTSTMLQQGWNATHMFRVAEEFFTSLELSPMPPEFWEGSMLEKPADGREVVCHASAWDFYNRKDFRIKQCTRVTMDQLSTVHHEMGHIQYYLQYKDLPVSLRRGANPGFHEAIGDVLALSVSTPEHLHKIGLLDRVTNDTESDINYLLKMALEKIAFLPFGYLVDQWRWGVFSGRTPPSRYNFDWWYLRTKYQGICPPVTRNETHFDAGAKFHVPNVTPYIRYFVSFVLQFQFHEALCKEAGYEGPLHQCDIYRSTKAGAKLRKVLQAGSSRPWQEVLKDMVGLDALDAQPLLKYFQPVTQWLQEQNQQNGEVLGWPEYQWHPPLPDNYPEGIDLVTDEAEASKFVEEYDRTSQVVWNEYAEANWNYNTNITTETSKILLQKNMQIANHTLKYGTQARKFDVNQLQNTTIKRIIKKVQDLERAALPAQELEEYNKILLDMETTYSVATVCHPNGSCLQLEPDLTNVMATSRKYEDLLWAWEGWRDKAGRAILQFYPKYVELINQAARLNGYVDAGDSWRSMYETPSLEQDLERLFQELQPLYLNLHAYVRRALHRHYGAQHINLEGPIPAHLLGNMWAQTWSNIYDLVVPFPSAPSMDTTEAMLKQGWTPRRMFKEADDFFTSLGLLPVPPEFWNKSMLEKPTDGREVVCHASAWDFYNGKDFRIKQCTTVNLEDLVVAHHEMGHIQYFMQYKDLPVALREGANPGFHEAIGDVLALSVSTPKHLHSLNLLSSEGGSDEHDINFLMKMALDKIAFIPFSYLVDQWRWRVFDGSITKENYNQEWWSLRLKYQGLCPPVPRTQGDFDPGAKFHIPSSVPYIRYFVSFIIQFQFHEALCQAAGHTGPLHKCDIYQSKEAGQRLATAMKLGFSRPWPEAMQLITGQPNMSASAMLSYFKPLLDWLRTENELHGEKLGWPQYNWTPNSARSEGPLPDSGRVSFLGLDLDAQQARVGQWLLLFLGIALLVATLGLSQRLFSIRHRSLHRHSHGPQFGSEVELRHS

[7] = species: Rattus norvegicus; assay: Positive allosteric modulation of catalytic activity of recombinant N-terminal poly-His tagged rat neurolysin at 40 uM assessed as Vmax as fluorescent unit/ng protein and measured fluorescence assay; details: filed as positive allosteric modulator
[8] = species: Rattus norvegicus; assay: Positive allosteric modulation of catalytic activity of recombinant N-terminal poly-His tagged rat neurolysin using Mca-Pro-Leu- Gly-Pro-D-Lys(DNP)-OH as substrate in presence of 1 uM dynoprhin A (1 to 13) and measured by fluorescence based assay relative to control; details: filed as positive allosteric modulator
[9] = species: Mus musculus; assay: Positive allosteric modulation of neurolysin in mouse brain using Mca-Pro-Leu- Gly-Pro-D-Lys(DNP)-OH as substrate and measured by fluorescence based assay relative to control; type: tissue-based; details: filed as positive allosteric modulator
[10] = species: Rattus norvegicus; assay: Positive allosteric modulation of catalytic activity of recombinant N-terminal poly-His tagged rat neurolysin assessed as effect on fluorescence signal of Mca-Pro-Leu-OH and measured fluorescence assay
[11] = species: Homo sapiens; assay: Positive allosteric modulation of recombinant N-terminal Met and His-tagged human neurolysin using Mca-Pro-Leu- Gly-Pro-D-Lys(DNP)-OH as substrate and measured by fluorescence based assay relative to control; details: filed as positive allosteric modulator
[12] = species: Rattus norvegicus; assay: Positive allosteric modulation of catalytic activity of recombinant N-terminal poly-His tagged rat neurolysin at 100 uM assessed as Vmax as fluorescent unit/ng protein measured fluorescence assay; details: filed as positive allosteric modulator
[13] = species: Rattus norvegicus; assay: Positive allosteric modulation of catalytic activity of recombinant N-terminal poly-His tagged rat neurolysin using Mca-Pro-Leu- Gly-Pro-D-Lys(DNP)-OH as substrate and measured by fluorescence based assay relative to control; details: filed as positive allosteric modulator
[14] = target: Angiotensin-converting enzyme 2 (Homo sapiens) (UniProt Q9BYF1); assay: Inhibition of recombinant N-terminal Met and His-tagged human ACE2 at 300 uM using Mca-Ala-Pro-Lys-(Dnp)-OH as substrate and measured by fluorescence based assay relative to control
Chain of Angiotensin-converting enzyme 2 (Homo sapiens) (Q9BYF1 18-805 limits assumed): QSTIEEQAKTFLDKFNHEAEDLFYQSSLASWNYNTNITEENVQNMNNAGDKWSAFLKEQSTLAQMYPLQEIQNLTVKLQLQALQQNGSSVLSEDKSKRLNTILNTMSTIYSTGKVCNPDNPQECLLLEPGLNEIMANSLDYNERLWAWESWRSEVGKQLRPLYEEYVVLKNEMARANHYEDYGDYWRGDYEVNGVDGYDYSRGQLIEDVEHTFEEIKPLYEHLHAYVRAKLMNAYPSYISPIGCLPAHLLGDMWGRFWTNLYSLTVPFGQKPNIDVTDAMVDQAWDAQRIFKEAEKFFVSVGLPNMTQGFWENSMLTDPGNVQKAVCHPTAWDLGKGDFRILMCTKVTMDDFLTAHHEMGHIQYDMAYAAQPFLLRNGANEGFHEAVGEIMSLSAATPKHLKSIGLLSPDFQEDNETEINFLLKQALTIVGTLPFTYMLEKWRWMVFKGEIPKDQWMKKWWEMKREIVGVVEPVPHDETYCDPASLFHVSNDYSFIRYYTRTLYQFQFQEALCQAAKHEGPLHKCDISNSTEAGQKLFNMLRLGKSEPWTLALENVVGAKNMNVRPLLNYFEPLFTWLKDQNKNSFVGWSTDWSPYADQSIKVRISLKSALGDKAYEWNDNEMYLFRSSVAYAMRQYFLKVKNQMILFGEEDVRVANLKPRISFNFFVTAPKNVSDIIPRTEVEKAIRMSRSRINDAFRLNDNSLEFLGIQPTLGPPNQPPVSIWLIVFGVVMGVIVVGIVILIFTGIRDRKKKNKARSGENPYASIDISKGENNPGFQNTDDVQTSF

[15] = species: Rattus norvegicus; assay: Positive allosteric modulation of catalytic activity of recombinant N-terminal poly-His tagged rat neurolysin at 100 uM assessed as Km measured fluorescence assay; details: filed as positive allosteric modulator
[16] = species: Rattus norvegicus; assay: Positive allosteric modulation of recombinant N-terminal poly-His tagged rat neurolysin at 100 uM assessed fold increase in formation of bradykinin (1 to 5) from bradykinin and measured by mass spectrometry analysis; details: filed as positive allosteric modulator
[17] = species: Rattus norvegicus; assay: Positive allosteric modulation of recombinant N-terminal poly-His tagged rat neurolysin at 100 uM assessed fold increase in formation of neurotensin (1 to 10) from neurotensin and measured by mass spectrometry analysis; details: filed as positive allosteric modulator
[18] = species: Rattus norvegicus; assay: Positive allosteric modulation of recombinant N-terminal poly-His tagged rat neurolysin at 100 uM assessed fold increase in formation of angiotensin (1 to 7) from angiotensin I and measured by mass spectrometry analysis; details: filed as positive allosteric modulator
[19] = Inhibition of recombinant N-terminal poly-His tagged rat neurolysin using Mca-Pro-Leu- Gly-Pro-D-Lys(DNP)-OH as substrate in presence of 100 uM NSC 523374 and measured by fluorescence based assay relative to control
[20] = Inhibition of recombinant N-terminal poly-His tagged rat neurolysin using Mca-Pro-Leu- Gly-Pro-D-Lys(DNP)-OH as substrate in presence of 100 uM NSC 374121 and measured by fluorescence based assay relative to control
[21] = filed as positive allosteric modulator

A50 [1, 21]: 5.4 µM | Emax [2, 21]: 178%
SMILES: N[C@@H](Cc1c[nH]cn1)C(=O)N[C@@H](Cc1ccccc1)C(=O)NCCc1ccccc1 (H-His-Phe-NHPhenethyl)

Emax [2, 21]: 305%
SMILES: N[C@@H](Cc1c[nH]cn1)C(=O)NCc1ccc(C(F)(F)F)cc1

Emax [2, 21]: 340%
SMILES: N[C@H](Cc1c[nH]cn1)C(=O)NCCc1ccc2ccccc2c1

A50 [1]: inactive | Emax [2]: inactive
SMILES: N[C@@H](Cc1ccccn1)C(=O)NCCc1ccccc1

A50 [1, 21]: 7.74 µM | Emax [2, 21]: 140%
SMILES: N[C@@H](Cc1c[nH]cn1)C(=O)Nc1ccccc1

Emax [2, 21]: 494%
SMILES: N[C@@H](Cc1c[nH]cn1)C(=O)NCc1cccc(C(F)(F)F)c1

A50 [1]: inactive | Emax [2]: inactive
SMILES: CC(C)(C)OC(=O)N[C@@H](Cc1c[nH]cn1)C(=O)N[C@@H](Cc1ccccc1)C(=O)O (Boc-His-Phe-OH)

inhibition [3]: 2.9% | Km [4]: 7.9 µM | inhibition [5]: 25.9% | inhibition [6]: 22.6% | fold change (FC) [16]: 2 | Vmax [7]: 124 min⁻¹ | Emax [8]: 238% | fold change (FC) [17]: 3 | Activity [10]: inactive | Emax [11]: 204% | fold change (FC) [18]: 6 | Vmax [12]: 165 min⁻¹ | Emax [13]: 235% | inhibition [14]: 13.4% | Km [15]: 6.4 µM
SMILES: NC(Cc1c[nH]cn1)C(=O)NC(Cc1ccc(O)cc1)C(=O)O (stereo not drawn) (H-His-Tyr-OH; configuration not given here)
Emax [9]: 190%

Emax [2, 21]: 396%
SMILES: N[C@H](Cc1c[nH]cn1)C(=O)NCCc1ccccc1C(F)(F)F

A50 [1]: inactive | Emax [2]: inactive
SMILES: O=C1NC(Cc2c[nH]cn2)C(=O)N2CCCC12 (stereo not drawn)

Emax [2, 21]: 325%
SMILES: COc1ccccc1CNC(=O)[C@H](N)Cc1c[nH]cn1

Emax [2, 21]: 324%
SMILES: N[C@@H](Cc1c[nH]cn1)C(=O)NCCc1ccc2ccccc2c1

Emax [2, 21]: 440%
SMILES: N[C@@H](Cc1c[nH]cn1)C(=O)N[C@H](Cc1cc2ccccc2[nH]1)C(=O)O

A50 [1]: inactive | Emax [2]: inactive
SMILES: CC(C)(C)OC(=O)N[C@@H](Cc1c[nH]cn1)C(=O)NCCc1cc2ccccc2[nH]1

Emax [2, 21]: 438%
SMILES: N[C@@H](Cc1c[nH]cn1)C(=O)NCCc1ccc(C(F)(F)F)cc1

Second part, the compound before the results:

SMILES: COc1ccc(CNC(=O)[C@@H](N)Cc2c[nH]cn2)cc1
Emax [2, 21]: 429%

SMILES: N[C@@H](Cc1cnc[nH]1)C(=O)N[C@@H](Cc1ccccc1)C(=O)O (H-His-Phe-OH)
A50 [1, 21]: 130 µM | Emax [2, 21]: 573%

SMILES: N[C@H](Cc1c[nH]cn1)C(=O)NCCc1cc2ccccc2[nH]1
Emax [2, 21]: 132%

SMILES: N[C@H](Cc1c[nH]cn1)C(=O)NCc1ccc(C(F)(F)F)cc1
Emax [2, 21]: 599%

SMILES: N[C@@H](Cc1c[nH]cn1)C(=O)NCCc1ccc(F)cc1
A50 [1, 21]: 27.9 µM | Emax [2, 21]: 323%

SMILES: N[C@@H](Cc1c[nH]cn1)C(=O)N1CCCC1
Emax [2, 21]: 173%

SMILES: N[C@@H](Cc1cnc[nH]1)C(=O)N[C@@H](Cc1ccc(O)cc1)C(=O)O (H-His-Tyr-OH)
Emax [2, 21]: 467%

SMILES: N[C@H](Cc1c[nH]cn1)C(=O)NCCc1ccccc1
Emax [2, 21]: 407%

SMILES: NC(Cc1c[nH]cn1)C(=O)NC(Cc1c[nH]cn1)C(=O)O (stereo not drawn)
inhibition [3]: 1.6% | Km [4]: 8 µM | inhibition [5]: 15.6% | inhibition [6]: 12.2% | Vmax [7]: 112 min⁻¹ | Emax [8]: 198% | Emax [9]: 258% | Activity [10]: inactive | Emax [11]: 214% | Vmax [12]: 148 min⁻¹ | Emax [13]: 203% | inhibition [14]: 10.9% | Km [15]: 6.1 µM

SMILES: O=C(CCc1cnc[nH]1)NCCc1c[nH]c2ccccc12
A50 [1]: inactive | Emax [2]: inactive

SMILES: COc1cccc(CNC(=O)[C@H](N)Cc2cnc[nH]2)c1
Emax [2, 21]: 477%

SMILES: COc1cccc(CCNC(=O)[C@H](N)Cc2c[nH]cn2)c1
Emax [2, 21]: 255%

SMILES: COc1ccc(CNC(=O)[C@H](N)Cc2cnc[nH]2)cc1
Emax [2, 21]: 704%

SMILES: N[C@H](Cc1c[nH]cn1)C(=O)NCc1cccc2ccccc12
Emax [2, 21]: 343%

SMILES: CC(C)(C)OC(=O)N[C@@H](Cc1c[nH]cn1)C(=O)NCCc1ccccc1
A50 [1]: inactive | Emax [2]: inactive

SMILES: N[C@@H](Cc1c[nH]cn1)C(=O)NCc1ccc2ccccc2c1
A50 [1, 21]: 12.3 µM | Emax [2, 21]: 262%

SMILES: NC(Cc1c[nH]cn1)C(=O)NCCc1cc2ccccc2[nH]1 (racemic)
Emax [2, 21]: 311%

SMILES: N[C@H](Cc1cnc[nH]1)C(=O)NCc1cccc(C(F)(F)F)c1
Emax [2, 21]: 184%

SMILES: N[C@@H](Cc1c[nH]cn1)C(=O)NCCc1ccccc1
Emax [2, 21]: 231%

SMILES: COc1ccc(CCNC(=O)[C@@H](N)Cc2c[nH]cn2)cc1
Emax [2, 21]: 544%

SMILES: N[C@@H](Cc1c[nH]cn1)C(=O)NCc1cccc2ccccc12
Emax [2, 21]: 264%

SMILES: CC[C@H](C)[C@H](NC(=O)[C@H](CCCNC(=N)N)NC(=O)[C@H](CCCNC(=N)N)NC(=O)[C@H](CC(C)C)NC(=O)[C@H](Cc1ccccc1)NC(=O)CNC(=O)CNC(=O)[C@@H](N)Cc1ccc(O)cc1)C(=O)N[C@@H](CCCNC(=N)N)C(=O)N1CCC[C@H]1C(=O)N[C@@H](CCCCN)C(=O)N[C@@H](CC(C)C)C(=O)N[C@@H](CCCCN)C(=O)O [ANALOG OF DYNORPHIN A]
pKi [19]: 6.22 | pKi [20]: 6.15

SMILES: N[C@@H](Cc1c[nH]cn1)C(=O)NCc1ccccc1
Emax [2, 21]: 152%

SMILES: N[C@H](Cc1c[nH]cn1)C(=O)NCCc1ccc(C(F)(F)F)cc1
Emax [2, 21]: 643%

SMILES: CC(C)(C)OC(=O)N[C@@H](Cc1c[nH]cn1)C(=O)NCCc1c[nH]c2ccccc12
A50 [1]: inactive | Emax [2]: inactive

SMILES: N[C@@H](Cc1c[nH]cn1)C(=O)NCc1ccc(F)cc1
Emax [2, 21]: 252%

SMILES: N[C@@H](Cc1c[nH]cn1)C(=O)NCc1ccccc1C(F)(F)F
Emax [2, 21]: 334%

SMILES: N[C@@H](Cc1c[nH]cn1)C(=O)NCCc1cc2ccccc2[nH]1
Emax [2, 21]: 259%
